Test results reported in PMC12888920, “MMP-9 regulates disulphide isomerase activity of TGM2 to enhance fusion glycoprotein-mediated syncytium formation of respiratory syncytial virus” (Protein & Cell, 2025).

Test system: RSV A2
Test: High-throughput antiviral screening of protease inhibitor library against RSV A2 in HEp-2 cells
Type: cell-based, Respiratory syncytial virus
Settings: RSV A2, MOI = 0.1, 1, 5, 10 µmol/L, 72 hpi
From the text: Figure 1. Antiviral activity of metalloproteinase inhibitors against RSV in vitro. (A) Experimental workflow for RSV A2 infection and compound treatment. (B) High-throughput screening of TargetMol L1100 library (246 host protease inhibitors targeting 10 pathways: MMPs, caspases, proteasomes, apoptosis regulators, cysteine proteases, gamma-secretase, autophagy modulators, serine proteases, DPP-4, and beta-secretase) using concentration gradients (1, 5, 10 µmol/L). HEp-2 cells were pretreated with compounds for 1 hour prior to RSV A2 infection (MOI = 0.1). Plaque formation was quantified at 72 hours post-infection (hpi) and normalized to DMSO controls. […] (G) Target overlap analysis of four MMP-9-targeting inhibitors. (H) Viral titers in supernatants of HEp-2 cells transfected with MMP-specific siRNAs (24 h) followed by RSV A2 infection (MOI = 1, 72 h). mean ± SD, n = 3. The results are representatively shown with three random experiments. The error bars indicate the mean ± SD of three technical replicates (n = 3). Statistical significance was determined by one-way ANOVA with Dunnett’s post hoc test: *P < 0.05, ***P < 0.001; ns, not significant.
104 High-throughput antiviral screening
105 The L1100 protease inhibitor library (246 compounds; L1100, TargetMol) was
106 screened against RSV A2 in HEp -2 cells. Compounds (10 mM DMSO stocks) were
107 robotically dispensed 1 h pre -infection at final concentrations of 1, 5, 10 μM.
108 Infection rates (72 hpi) were normalized to PC786 (1 μM; positive control; HY -
109 111813, MCE) and 0.1% DMSO vehicle. Primary hits (>50% CPE reduction + not
110 overtly cytotoxic) underwent dose -response validation (0.00004 –10 μM) to generate
111 EC50 curves (GraphPad Prism 8.0) .
112 Evaluation of in vitro antiviral activity
113 Compound inhibitor treatments: HEp-2 cells (1.3×10⁴/well) or HBEC (1.8×10⁴/well)
114 were pretreated with test compounds for 1 h before RSV A2/B18537 infection
115 (MOI=0.1 or 0.3). Viral inhibition was quantified at 72 hpi via FFA. Fixed cells (4%
116 PFA) were permeabilized (0.3% Triton X-100), stained with anti-RSV-FITC
118 Fluorescent foci were normalized to nuclear counts (ImageJ software) for EC 50
119 determination via four-parameter logistic regression (GraphPad Prism 8.0). Data
120 represent triplicate experiments. […]

Compound	inhibition of RSV infection in HEp-2 cells
COc1ccccc1Nc1nc(-c2sc(NC(C)=O)nc2C)cs1 [JNJ0966]	significant dose-dependent inhibition
Doxycycline hyclate	significant dose-dependent inhibition
